Consider 13 molecules from US7829665B2 (priority 2005, dated 2010).

The subject of assay [1] is HCV sub-genomic replicon in GS4.3 cells (HuH-7 hepatoma cells). The assay can be described thus: Quantitation by ELISA of Neomycin phosphotransferase II (NPTII) in the HCV sub-genomic replicon, GS4.3. Format: cell-based, hepatitis C virus. To be noted: Hepatitis C virus, Huh-7; GS4.3 cells, 72 h incubation, NPTII ELISA; read-out: Replicon EC50. The essentials:
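HuH-7 GS4.3 cells carrying HCV sub-genomic replicon 1377/NS3-3′, treated 72 h at 37 °C without G418 with 3-fold dilutions from 10 μM to 56 pM (1% DMSO). NPTII in cell lysates measured by direct ELISA with TMB readout at 450 nm. EC50 from 4-parameter fit of percent DMSO-control signal.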
For orientation: An ELISA detects its analyte on a solid surface through an enzyme-linked reagent.

In assay [2] the target is T1, full-length NS3/NS4A-2 (HCV NS3 protease) (Hepatitis C virus genotype 1a, UniProt P27958).
T1 construct: Recombinant E. coli or Baculovirus full-length NS3 was diluted to 3.33 μM with assay buffer; made in house; host or cells: E. coli or baculovirus (BV) expression system
T1 sequence (P27958 1027-1657): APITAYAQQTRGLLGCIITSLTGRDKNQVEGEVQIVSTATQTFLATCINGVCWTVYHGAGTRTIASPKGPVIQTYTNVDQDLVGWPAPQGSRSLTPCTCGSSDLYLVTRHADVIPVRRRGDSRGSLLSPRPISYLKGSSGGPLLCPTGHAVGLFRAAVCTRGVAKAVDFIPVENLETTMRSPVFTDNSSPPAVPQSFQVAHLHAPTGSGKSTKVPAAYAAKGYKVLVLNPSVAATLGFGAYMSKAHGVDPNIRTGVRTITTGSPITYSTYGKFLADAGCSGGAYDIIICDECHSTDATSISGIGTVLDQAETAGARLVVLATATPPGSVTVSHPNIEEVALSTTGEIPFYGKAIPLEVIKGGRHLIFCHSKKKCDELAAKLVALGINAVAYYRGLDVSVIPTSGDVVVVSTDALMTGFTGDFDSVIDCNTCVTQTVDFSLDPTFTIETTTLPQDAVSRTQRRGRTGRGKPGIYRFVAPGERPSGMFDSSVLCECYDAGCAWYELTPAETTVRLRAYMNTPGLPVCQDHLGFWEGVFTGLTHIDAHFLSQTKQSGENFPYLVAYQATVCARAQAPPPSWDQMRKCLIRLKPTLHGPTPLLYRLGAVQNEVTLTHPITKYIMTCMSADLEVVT
The assay can be described thus: NS3-NS4 protease assay / NS3 inhibition assay (RETS1 substrate, fluorescence kinetic read). To be noted: recombinant E. coli or Baculovirus full-length NS3 with NS4A-2; read-out: NS3-NS4 IC50. Format: biochemical. Summed up:
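Full-length NS3 from E. coli (2 nM in assay) or baculovirus (3 nM) was precomplexed with excess NS4A-2 peptide, then preincubated 10 min at room temperature with serially diluted compounds starting at 50 microM. Reaction was started with RETS1 substrate at 8 μM before addition and read kinetically for 30 min (ex 335/em 495 nm). Four-parameter IC50s were converted to Ki by Cheng-Prusoff using Km 2.03 μM (E. coli) or 1.74 μM (BV).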

The structures appear in SMILES notation. Bounds are passed on as bounds.

As for `CC(C)(C)OC(=O)N[C@H]1CCC(F)(F)CC/C=C\[C@@H]2C[C@@]2(C(=O)O)NC(=O)[C@@H]2C[C@@H](OC(=O)N3CCc4ccccc4C3)CN2C1=O` [Compound 1013], the EC50 in assay [1] was below 0.1 µM. The IC50 in assay [2] is below 0.1 µM.
As to `O=C1N[C@]2(C(=O)NS(=O)(=O)C3CC3)C[C@H]2/C=C\CCCCC[C@H](Nc2c(N3CCCCC3)c(=O)c2=O)C(=O)N2C[C@H](OC(=O)N3Cc4cccc(F)c4C3)C[C@@H]12` [Compound 198], the EC50 in assay [1] was below 1 µM. For the same molecule, in assay [2], the IC50 was below 0.1 µM.
`CC[C@@H]1C[C@H]2C(=O)N[C@]3(C(=O)NS(=O)(=O)C4CC4)C[C@H]3/C=C\CCCCC[C@H](NC(=O)OC3CCCC3)C(=O)N2C1` [Compound 314]: the EC50 in assay [1] is below 10 µM. The IC50 in assay [2] was below 0.1 µM.
For `N[C@H]1CCC(F)(F)CC/C=C\[C@@H]2C[C@@]2(C(=O)NS(=O)(=O)C2CC2)NC(=O)[C@@H]2C[C@@H](OC(=O)N3Cc4cccc(F)c4C3)CN2C1=O` [Compound 1003], the EC50 in assay [1] is below 1 µM. Further, in assay [2], the IC50 was below 0.1 µM.
With `CC(C)(C)OC(=O)N[C@H]1CCCCC/C=C\[C@@H]2C[C@@]2(C(=O)NS(=O)(=O)N2CCC(F)(F)C2)NC(=O)[C@@H]2C[C@@H](OC(=O)N3Cc4cccc(Cl)c4C3)CN2C1=O` [Compound 211], the EC50 in assay [1] was below 0.1 µM. Besides, in assay [2], the IC50 is below 0.1 µM.
As for `O=C(N[C@H]1CCCCC/C=C\[C@@H]2C[C@@]2(C(=O)NS(=O)(=O)c2cc(Cl)sc2Cl)NC(=O)[C@@H]2C[C@@H](OC(=O)N3Cc4cccc(Cl)c4C3)CN2C1=O)OC1CCCC1` [Compound 174], the EC50 in assay [1] was below 0.1 µM. Also, in assay [2], the IC50 is below 0.1 µM.
On to `CN(C)CCOc1ccc2c(c1)CN(C(=O)O[C@@H]1C[C@H]3C(=O)N[C@]4(C(=O)NS(=O)(=O)C5CC5)C[C@H]4/C=C\CCCCC[C@H](NC(=O)OC4CCCC4)C(=O)N3C1)C2` [Compound 134], for which the EC50 in assay [1] was below 0.1 µM. Besides, the IC50 in assay [2] is below 0.1 µM.
With `CC(C)(C)OC(=O)N[C@H]1CCCCC/C=C\[C@@H]2C[C@@]2(C(=O)N[C@@H]2CCS(=O)(=O)C2)NC(=O)[C@@H]2C[C@@H](OC(=O)N3Cc4cccc(F)c4C3)CN2C1=O` [Compound 633], the EC50 in assay [1] is below 1 µM. Also, in assay [2], the IC50 is below 1 µM.
In the case of `CC(C)(C)OC(=O)N[C@H]1CCCC/C=C\[C@@H]2C[C@@]2(C(=O)NS(=O)(=O)C2CC2)NC(=O)[C@@H]2C[C@@H](OC(=O)N3Cc4cccc(F)c4C3)CN2C1=O` [Compound 267], the EC50 in assay [1] is below 0.1 µM. Further, the IC50 in assay [2] was below 0.1 µM.
Take `O=C1N[C@]2(C(=O)O)C[C@H]2/C=C\CCCCC[C@H](Nc2c(N3CCC3)c(=O)c2=O)C(=O)N2C[C@H](OC(=O)N3Cc4cccc(F)c4C3)C[C@@H]12` [Compound 238]: the EC50 in assay [1] is below 10 µM. For the same molecule, the IC50 in assay [2] was below 0.1 µM.
As to `CCCNC(=O)[C@@]12C[C@H]1/C=C\CCCCC[C@H](NC(=O)OC(C)(C)C)C(=O)N1C[C@H](OC(=O)N3Cc4ccccc4C3)C[C@H]1C(=O)N2` [Compound 600], in assay [1], the EC50 was below 1 µM. In addition, the IC50 in assay [2] was below 0.1 µM.
On the same counts, the results for `CC(C)OC(=O)N[C@H]1CCC(F)(F)CC/C=C\[C@@H]2C[C@@]2(C(=O)NS(=O)(=O)C2CC2)NC(=O)[C@@H]2C[C@@H](OC(=O)N3Cc4ccccc4C3)CN2C1=O` [Compound 1012] are below 0.1 µM and below 0.1 µM.
In the case of `O=C1N[C@]2(C(=O)NS(=O)(=O)C3CC3)C[C@H]2/C=C\CCCCC[C@H](Nc2nc(-c3ccccc3)cs2)C(=O)N2C[C@H](OC(=O)N3Cc4cccc(Cl)c4C3)C[C@@H]12` [Compound 929], in assay [1], the EC50 was below 0.1 µM. For the same molecule, in assay [2], the IC50 is below 0.1 µM.

As a reminder, the EC50 is the concentration at which the effect is half-maximal. In general, IC50 refers to the concentration at which inhibition is half-maximal.
